According to PubChem BioAssay (NCI):
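Results reflect a 48-hour exposure of cells in 96-well plates to compound at five concentrations. GI50: concentration for 50% inhibition of growth. TGI: concentration producing complete growth inhibition.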

Legend:
Experiment in all cases: NCI tumour cell line growth inhibition, 48 h
EKVX NSCLC = tested on: EKVX NSCLC
OVCAR-5 ovarian = tested on: OVCAR-5 ovarian
MALME-3M melanoma = tested on: MALME-3M melanoma
LOX IMVI melanoma = tested on: LOX IMVI melanoma
HT29 colon = tested on: HT29 colon
OVCAR-8 ovarian = tested on: OVCAR-8 ovarian
UACC-257 melanoma = tested on: UACC-257 melanoma
IGROV1 ovarian = tested on: IGROV1 ovarian
HOP-62 NSCLC = tested on: HOP-62 NSCLC
BT-549 breast = tested on: BT-549 breast

Row | SMILES | TGI (EKVX NSCLC) [µM] | TGI (OVCAR-5 ovarian) [µM] | TGI (MALME-3M melanoma) [µM] | TGI (LOX IMVI melanoma) [µM] | TGI (HT29 colon) [µM] | TGI (OVCAR-8 ovarian) [µM] | TGI (UACC-257 melanoma) [µM] | TGI (IGROV1 ovarian) [µM] | TGI (HOP-62 NSCLC) [µM] | GI50 (EKVX NSCLC) [µM] | GI50 (OVCAR-5 ovarian) [µM] | GI50 (MALME-3M melanoma) [µM] | GI50 (LOX IMVI melanoma) [µM] | GI50 (HT29 colon) [µM] | GI50 (OVCAR-8 ovarian) [µM] | GI50 (UACC-257 melanoma) [µM] | GI50 (IGROV1 ovarian) [µM] | GI50 (HOP-62 NSCLC) [µM] | GI50 (BT-549 breast) [µM] | TGI (BT-549 breast) [µM]
1 | Cc1ccc(-c2cc(-c3ccccc3)c(C#N)c(=O)n2C2OC(CO)C(O)C(O)C2O)cc1 (configuration not stated) | > 100 | > 100 | > 100 | > 100 | > 100 | > 100 | > 100 | > 100 | > 100 |  |  |  |  |  |  |  |  |  |  | 
2 | Cc1ccc(-c2cc(-c3ccco3)c(C#N)c(=O)n2C2OC(OC(=O)c3ccccc3)C(OC(=O)c3ccccc3)C2OC(=O)c2ccccc2)cc1 (configuration not stated) | > 100 | > 100 | > 100 | > 100 | > 100 | > 100 |  | > 100 | > 100 |  |  |  |  |  |  |  |  |  |  | 
3 | COC1OC(CO)C(O)C1N (configuration not stated) | > 100 | > 100 | > 100 | > 100 | > 100 | > 100 | > 100 | > 100 | > 100 |  |  |  |  |  |  |  |  |  |  | 
4 | CC[C@]1(O)C(=O)OCc2c1cc1n(c2=O)Cc2cc3c(N)cccc3nc2-1 | > 100 | > 100 | > 100 | > 100 | > 100 | > 100 | > 100 | > 100 | > 100 |  |  |  |  |  |  |  |  |  |  | 
5 | N.N.N.N.O=C([O-])C(Cl)Cl.O=C([O-])C(Cl)Cl.[Co+3].[O-][Cl+3]([O-])([O-])[O-] | > 100 | > 100 | > 100 | > 100 | > 100 | > 100 | > 100 | > 100 | > 100 | > 100 | > 100 | > 100 | > 100 | > 100 | > 100 | > 100 | > 100 | > 100 |  | 
6 | COc1ccc(/C=C\c2cc(OC)c(O[Si](C)(C)C(C)(C)C)c(OC)c2)cc1 | > 100 | > 100 | > 100 |  | > 100 | > 100 | 62.4 | > 100 | > 100 |  |  |  |  |  |  |  |  |  |  | 
7 | CCn1c2ccc(O)cc2c2c(C)c3c[n+](C)ccc3c(C)c21 | > 100 | > 100 | 7.12 | > 100 | > 100 | 41.4 |  |  | 21 | 10.9 | 23.8 | 1.32 | 8.83 | 13.2 | 1.47 |  |  | 1.18 | 1.55 | 8.29
8 | COc1ccc(-c2ccc(-c3ccc(C(=N)N)cn3)o2)cc1 |  | 23.7 | 7.32 | 6.86 | 11.1 | 31.2 | 4.69 | 19 | 22.6 |  | 10.9 | 3.25 | 2.58 | 3.4 | 11.3 | 2.18 | 5.29 | 10.5 | 10.7 | 22.8
9 | COc1ccc(/C=C2\CCCC(C(NO)c3ccc(OC)cc3)C2=NO)cc1 (configuration not stated) | > 100 |  | > 100 |  | > 100 | > 100 | > 100 | > 100 | > 100 |  |  |  |  |  |  |  |  |  |  | 
